Test results published in patent US9546367B2, “siRNA compositions and methods for inhibiting gene expression in tumor initiating cells of breast cancer” (priority 2011, dated 2017).

What was measured:
[1] = tested on: BT549; assay: in vitro MSFE with nanoliposome/silicon particle packaged siRNA; assay type: cell-based, human; details: for secondary MSFE: BT549, siRNA, Day 8, p<0.05; for primary and secondary MSFE: BT549 incubated with MSV/siRNA
Protocol: (§1) “Claudin-low”-like human breast cancer cell lines (SUM159 and BT549) were plated in 24-well ultralow attachment plates with mammary epithelial growth medium (MEGM) (5,000 cells/well). Both cell lines were then treated with 1 μg/well/6 wells of silicon particles loaded with DOPC nanoliposomes/siRNA. The primary MSs were allowed to grow for 3 days. MFs were counted on Day 3 with a GelCount colony counter (Oxford Optronix, Oxford, UK). Mammosphere-Forming Efficiency (MSFE) was calculated by dividing the number of MSs by the number of seeded cells. In addition, established MSs were serially passaged by dissociation, and single cells were re-plated on fresh 24-well, ultra-low-attachment plates to form secondary mammospheres, which were counted after 3 days. One-way ANOVA and Tukey tests were performed. A p-value of less than 0.05 was considered significant.
(§2) To develop a more clinically relevant model, two of the identified candidates (MLF2 and RPL39L) were compared to Stat3 (positive control), and their siRNA sequences identified within the shRNA vector. These siRNAs were then packaged in nanoliposomes and tested for MSFE using the same protocol as above, except for the addition of packaged siRNA instead of lentiviral shRNA. (N.B. wherein shRNA requires a promoter and needs to be transcribed in order to function, siRNA functions by itself once incorporated into recipient cells).
(§3) To develop siRNA nanotherapeutics targeting TIC, studies have been conducted to confirm the essential roles of the candidate TIC genes. Exemplary siRNA oligonucleotides specific for STAT3, MFL2, and RPL39L were formulated into nanoliposomes, which were then loaded into porous silicon MSV particles. For in vitro assay, BT549 and SUM159 cells were incubated with MSV/siRNA, and primary and secondary MSFE was measured. […] For in vivo assessment, SCID/Beige mice were inoculated with SUM159 tumor, and treated with MDS/siRNA delivered by tail vein injection. Cells were then isolated from tumor mice 3 weeks later, and MSFE was measured. […] These studies indicate that 1) MDS/siRNA could successfully be delivered to tumor tissues effectively in vivo, 2) uptake of MDS/siRNA by TIC was efficient, and 3) MFL2 and RPL39L were essential genes for TIC.
(§4) The siRNA sequences of two candidate genes RPL39 and MLF2 were packaged in nanoliposomes and the effects on MSFE determined in vitro, as described above, using packaged siRNA instead of lentiviral shRNA.

[2] = tested on: SUM159; assay: as above; assay type: cell-based, human; details: for secondary MSFE: SUM159, siRNA, Day 8, p<0.05; for primary and secondary MSFE: SUM159 incubated with MSV/siRNA
Protocol: as §1, §2, §3, §4

[3] = tested on: MDAMB231 tumor xenografts; assay: long-term in vivo siRNA treatment of MDAMB231 xenografts; design: species or system SCID-Beige mice; details: p<0.05; for median survival: siRNA with chemotherapy (docetaxel) over chemotherapy alone
Protocol: FIG. 8A, FIG. 8B, and […] show long-term, in vivo treatment in siRNA MDAMB231 xenografts. Triple-negative breast cancer cell line, MDAMB231 was injected into the mammary fat pad of SCID beige mice (n=9). These tumors were randomized into six groups: vehicle+scrambled siRNA, vehicle+RPL39 siRNA, vehicle 4 MLF2 siRNA, docetaxel (20 mg/kg, i.p.)+scrambled siRNA, docetaxel (20 mg/kg, i.p.)+RPL39 siRNA, docetaxel (20 mg/kg, i.p.)+MLF2 siRNA. Tumor volume was measured twice weekly and reported as tumor volume fold-change over time.
Long-term in vivo treatment efficacy studies: three million cells MDAMB231 cancer cells, which grow primary as well as metastatic tumors, were injected in the mammary fat pad of SCID-Beige mice and allowed them to grow to 150-300 mm^3 tumors, and randomized them into 6 groups: (1) vehicle+scrambled siRNA. (2) vehicle+MLF2 siRNA. (3) vehicle+RPL39 siRNA, (4) docetaxel (20 mg/kg)+scrambled siRNA, (5) docetaxel (20 mg/kg)+MLF2 siRNA, and (6) docetaxel (20 mg/kg)+RPL39 siRNA. Each injection was loaded with 15 μg of siRNA per animal. These groups received three cycles of treatment every 14 days apart starting at Day 0, and cationic liposome packaged siRNA was administered through tail vein injection thrice weekly.
In the shRNA knockdown experiments, the mean and standard deviation of all measurements from every replicated experiment of each plate were estimated. The Z-score was calculated by subtracting […] and dividing the difference by standard deviation. […] Different treatment groups were compared by one-way ANOVA to determine statistical significance in the confirmatory shRNA, nanoliposome siRNA, and tumor volume fold-change experiments. This was followed by Tukey analysis for a pairwise comparison of the different treatment groups. In the tumor recurrence studies, events were defined as first appearance of tumor >50 mm^3 after completion of treatment. Time to recurrence was derived by the Kaplan-Meier method, with differences compared using the generalized Mann-Whitney-Wilcoxon rank-sum test.

[4] = tested on: MDAMB231 lung metastasis; assay: in vivo lung metastasis of luciferase-tagged MDAMB231, IVIS imaging; design: species or system SCID-beige mice; details: siRNA in cationic liposomes twice weekly; for lung metastasis (animals with metastasis / animals), IVIS imaging: week six; for luminescence (luciferase analysis): p<0.05
Protocol: 3 million cells MDAMB231 cancer cells, stably transfected with luciferase, were injected in the mammary fat pad of SCID-beige mice and were randomized into 3 groups: (1) vehicle+scrambled siRNA, (2) vehicle+MLF2 siRNA, and (3) vehicle+RPL39 siRNA, and treated with siRNA packaged liposomes twice weekly for 6 weeks. The mice were injected with D-luciferin every week for 6 weeks to determine lung metastases using IVIS imaging (Perkin Elmer). The primary tumors were removed by week 5 to continue this study without increasing the primary tumor burden to 10% of body weight.
To assess the effects of RPL39 and MLF2 siRNA on lung metastasis, SCID-Beige mice were injected with luciferase-tagged MDAMB231 cells and treated with siRNA against RPL39 or MLF2 packaged in cationic liposomes, twice weekly simultaneously, and then sacrificed at week six.

[5] = siRNA alone (15 μg per injection) vs vehicle treated groups
[6] = siRNA in combination with docetaxel (20 mg/kg)

Substance | secondary MSFE [1] | primary and secondary MSFE [1] | secondary MSFE [2] | primary and secondary MSFE [2] | tumor volume [3, 5] | tumor volume [3, 6] | median survival [3] | lung metastasis (animals with metastasis / animals), IVIS imaging [4] | luminescence (luciferase analysis) [4]
MLF2 siRNA: siRNA against myeloid leukemia factor 2; sense SEQ ID NO: 3 CCCTGATGGATCCCTTTGCTAT, antisense SEQ ID NO: 19 ATAGCAAAGGGATCCATCAGGA (packaged in nanoliposomes, chemistry not given here, further chemistry not given here) | significantly reduced | significant reduction | significantly reduced | significant reduction | Significant reduction | significantly reduced | significantly prolonged | 8/12 | significant reduction
RPL39 siRNA: siRNA against ribosomal protein L39-like; sense SEQ ID NO: 15 ACGATTCCTGGCCAAGAAACAA, antisense SEQ ID NO: 31 TTGTTTCTTGGCCAGGAATCGC (listed as DNA, chemistry not fully specified) | significantly reduced | significant reduction | significantly reduced | significant reduction | Significant reduction | significantly reduced | significantly prolonged | 5/11 | significant reduction
